Experimental data reported in patent publication US6414031B1, “Bisoximether derivatives, methods and intermediate products for the production thereof, and their use for combating fungicidal pests and animal pests” (BASF Aktiengesellschaft, priority 1998, dated 2002).

Tests used:
Type in all cases: in vivo
Nephotettix cincticeps [1] = assay: Action against Nephotettix cincticeps, contact action (filter disks); conditions: treated filter disks, adult leafhoppers, mortality after 24 hours
Description: (§1) The active ingredients were formulated
(§2) a. as a 0.1% strength solution in acetone or
(§3) b. as a 10% emulsion in a mixture of 70% by weight of cyclohexanone, 20% by weight of Nekanil® LN (Lutensol® AP6, wetter having emulsifying and dispersant action, based on ethoxylated alkylphenols) and 10% by weight of Wettol® EM (non-ionic emulsifier based on ethoxylated castor oil)
(§4) and diluted to give the desired concentration, using acetone in the case of a. and water in the case of b.
Filter disks (Ø 9 cm) were treated with 1 ml of aqueous formulations of the active ingredient and subsequently populated with five adult leafhoppers. The mortality was determined after 24 hours.

Aphis fabae = assay: Action against Aphis fabae, contact action; conditions: infested dwarf beans (Vicia faba), mortality after 24 hours
Description: as §1, §2, §3, §4
Severely infested dwarf beans (Vicia faba) in the four-leaf stage were treated with aqueous formulations of active ingredient. The mortality rate was determined after 24 hours.

Nephotettix cincticeps [2] = assay: Action against Nephotettix cincticeps (crop spray experiment); conditions: sprayed rice plants, adult leafhoppers, mortality after 24 hours
Description: as §1, §2, §3, §4
Rice plants grown in pots (plant height approximately 8 cm) were sprayed to runoff point with aqueous formulations of active ingredients. After drying, the plants were populated with 20 adult leafhoppers. The mortality was determined after 24 hours.

Puccinia recondita = assay: Curative activity against Puccinia recondita on wheat (leaf rust); conditions: 1 ppm, wheat sprayed 1 day after infection, assessed after 7 days, untreated 90%
Description: as §3, with “The active ingredients, separately or together, were formulated” for “b.”, “[…],” for “cyclohexanone,”, “oil) and diluted with water to give the desired concentration.” for “oil)”
Leaves of wheat seedling cv. “Kanzler” grown in pots were dusted with leaf rust spores (Puccinia recondita). The pots were then placed for 24 hours into a chamber with high atmospheric humidity (90 to 95%) and 20 to 22° C. During this time, the spores germinated and the germ tubes penetrated the leaf tissue. Next day, the infected plants were sprayed to runoff with an aqueous active ingredient preparation made with a stock solution consisting of 10% of active ingredient, 63% of cyclohexanone and 27% of emulsifier. After the spray coating had dried on, the test plants were grown in the greenhouse for 7 days at temperatures between 20 and 22° C. and a relative atmospheric humidity of 65 to 70%. The extent of rust development on the leaves was then determined.

Plasmopara viticola = assay: Activity against Plasmopara viticola on grape leaves (long-term action); conditions: 16 ppm, grape leaves inoculated 7 days after spraying; untreated 85%
Description: as §3, with “The active ingredients, separately or together, were formulated” for “b.”, “[…],” for “cyclohexanone,”, “oil) and diluted with water to give the desired concentration.” for “oil)”
Leaves of grapes cv. “Müller-Thurgaul” in pots were sprayed to runoff with aqueous active ingredient preparations made with a stock solution of 10% active ingredient, 63% cyclohexanone and 27% of emulsifier. In order to be able to assess the long-term action of the substances, the spray coating was allowed to dry off and the plants were then placed in the greenhouse for 7 days. Only then were the leaves inoculated with an aqueous zoospore suspension of Plasmopara viticola. Then, the vines were first placed for 48 hours into a water-vapor-saturated chamber at 24° C. and then for 5 days in the greenhouse at temperatures between 20 and 30° C. After this time, the plants were returned to a humid chamber for 16 hours to accelerate sporangiophore eruption for 16 hours. The extent of the disease development on the undersides of the leaves was then determined visually.

SMILES | limit concentration (lowest concentration with 80 to 100% inhibition or mortality) (Nephotettix cincticeps [1]) [mg] | limit concentration (lowest concentration with 80 to 100% inhibition or mortality) (Aphis fabae) [ppm] | limit concentration (lowest concentration with 80 to 100% inhibition or mortality) (Nephotettix cincticeps [2]) [ppm] | disease level (extent of rust development on the leaves) (Puccinia recondita) [%] | disease level (undersides of the leaves) (Plasmopara viticola) [%]
COC=C(C(=O)OC)c1ccccc1CON=C(C)C(=NOC)C1CCCCC1 [A] | 0.2 | 100 | 400 | 90 | 
CC=C(C(=O)OC)c1ccccc1CON=C(C)C(=NOC)C1CCCCC1 [B] | 0.2 |  | 400 |  | 
CC=C(C(=O)OC)c1ccccc1CON=C(C)C(=NOC)C1CCC(C)CC1 (centres unmarked) [Compound I-4] | 0.04 |  |  |  | 
CON=C(C(=O)OC)c1ccccc1CON=C(C)C(=NOC)C1CCCCC1 [C] |  | 100 |  |  | 
COC=C(C(=O)OC)c1ccccc1CON=C(C)C(=NOC)C1CCC(C)CC1 (centres unmarked) [Compound I-3] | 0.04 |  |  |  | 
CNC(=O)C(=NOC)c1ccccc1CON=C(C)C(=NOC)C1CCCCC1 [D] |  |  |  | 90 | 60
